Target: T1, KRAS 4B G12C protein (Homo sapiens, UniProt P01116, G12C)
T1 construct: made in house; host or cells: E. coli BL21
Assay: In vitro covalent adduct formation (CAF) assay, LC-MS
Assay type: binding
Conditions: 5 μM KRAS 4B G12C, 10 μM compound, 22° C.
Experimental: This Example provides a protocol for assessing covalent adduct formation (CAF) between the compounds provided herein and KRAS.
In vitro covalent adduct formation assay: Covalent adduct formation (CAF) reactions between Cys12 of the KRAS 4B G12C protein and embodiments of the application were measured in vitro using liquid chromatography-mass spectrometry (LC-MS).
Recombinant Human KRAS 4B protein containing the G12C mutation was used in compound screening experiments. This protein contained 188 amino acids in total, including an N-terminal 6-Histidine tag, followed by a Tobacco Etch Virus (TEV) tag, followed by residues 1-169 of the native KRAS 4B sequence. The exact mass of the protein was 21,310 Da as determined by mass spectrometry. […]
The recombinant protein was expressed in E. coli BL21 cells and purified using affinity chromatography via a Ni-NTA column. […] The intact mass of the protein samples was measured by LC-MS using a QExactive+mass spectrometer (Thermo Scientific). An amount of 500 ng total protein was injected onto a C8 reverse phase column, eluted with a seven-minute gradient of 30%-90% acetonitrile/0.10% formic acid, and analyzed for intact mass by the mass spectrometer. Adducts identified were confirmed to be within 1 Dalton of the expected mass, and the relative ratios of free:adduct protein were used to quantify the percentage of protein bound by the compound. […]

% CAF at 5 min: 98%
SMILES: C=CC(=O)N1CCN(c2nc(OCCN3CCC4(CC3)CN(c3cc([C@H](C(=O)N5C[C@H](O)C[C@H]5C(=O)N[C@@H](C)c5ccc(-c6c(F)cccc6F)cc5)C(C)C)on3)C4)nc3c(F)c(-c4nc(N)cc(C)c4C(F)(F)F)c(Cl)cc23)[C@@H](C)C1 (atropisomer, axis not shown) [Example 201, (2S,4R)-1-((R)-2-(3-(7-(2-(((R)-4-((S)-4-acryloyl-2-methylpiperazin-1-yl)-7-(6-amino-4-methyl-3-(trifluoromethyl)pyridin-2-yl)-6-chloro-8-fluoroquinazolin-2-yl)oxy)ethyl)-2,7-diazaspiro[3.5]nonan-2-yl)isoxazol-5-yl)-3-methylbutanoyl)-N—((S)-1-(2′,6′-difluoro-[1,1′-biphenyl]-4-yl)ethyl)-4-hydroxypyrrolidine-2-carboxamide]
